{"source": "patent US20080261977A1", "about": "“Pyrimidine Derivatives as Cannabinoid Receptor Modulators” (priority 2004, published 2008)", "biological_target": "T1, human cannabinoid CB2 receptor (Homo sapiens, UniProt P34972)", "T1 construct": "expressed in transfected cells; host or cells: Saccharomyces cerevisiae strain MMY23 (cassette integrated at the ura3 locus; chimeric Gpa1/Gαi3)", "T1 sequence (P34972 whole entry)": "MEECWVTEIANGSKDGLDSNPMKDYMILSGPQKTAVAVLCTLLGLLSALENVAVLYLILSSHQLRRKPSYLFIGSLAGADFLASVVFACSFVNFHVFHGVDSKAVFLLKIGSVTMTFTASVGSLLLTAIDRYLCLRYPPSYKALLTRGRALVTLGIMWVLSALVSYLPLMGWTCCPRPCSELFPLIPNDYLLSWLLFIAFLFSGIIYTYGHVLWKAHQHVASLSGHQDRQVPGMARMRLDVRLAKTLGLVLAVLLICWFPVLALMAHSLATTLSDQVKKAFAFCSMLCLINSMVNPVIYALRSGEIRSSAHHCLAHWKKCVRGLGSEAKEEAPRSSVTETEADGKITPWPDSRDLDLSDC", "assay": "Cannabinoid CB2 receptor agonist activity, yeast (Saccharomyces cerevisiae) cells expressing the receptor, FDGlu fluorescence", "type": "cell-based", "conditions": "for Emax: read-out: efficacy (Emax relative to HU210) at the cloned human cannabinoid CB2 receptor", "description": "The cannabinoid CB2 receptor agonist activity of the compounds of formula (I) was determined in accordance with the following experimental method.\nYeast (Saccharomyces cerevisiae) cells expressing the human cannabinoid CB2 receptor were generated by integration of an expression cassette into the ura3 chromosomal locus of yeast strain MMY23. This cassette consisted of DNA sequence encoding the human CB2 receptor flanked by the yeast GPD promoter to the 5′ end of CB2 and a yeast transcriptional terminator sequence to the 3′ end of CB2. MMY23 expresses a yeast/mammalian chimeric G-protein alpha subunit in which the C-terminal 5 amino acids of Gpa1 are replaced with the C-terminal 5 amino acids of human Gαi3 (as described in Brown et al. (2000), Yeast 16:11-22). Cells were grown at 30° C. in liquid Synthetic Complete (SC) yeast media (Guthrie and Fink (1991), Methods in Enzymology, Vol. 194) lacking uracil, tryptophan, adenine and leucine to late logarithmic phase (approximately 6 OD600/ml).\nAgonists were prepared as 10 mM stocks in DMSO. EC50 values (the concentration required to produce 50% maximal response) were estimated using dilutions of between 3- and 5-fold (BiomekFX, Beckman) into DMSO. Agonist solutions in DMSO (1% final assay volume) were transferred into black, clear bottom, microtitre plates from NUNC (96- or 384-well). Cells were suspended at a density of 0.2 OD600/ml in SC media lacking histidine, uracil, tryptophan, adenine and leucine and supplemented with 10 mM 3-aminotriazole, 0.1M sodium phosphate pH 7.0, and […] fluorescein di-β-D-glucopyranoside (FDGlu). This mixture (50 ul per well for 384-well plates, 200 ul per well for 96-well plates) was added to agonist in the assay plates (Multidrop 384, Labsystems). After incubation at 30° C. for 24 hours, fluorescence resulting from degradation of FDGlu to fluorescein due to exoglucanase, an endogenous yeast enzyme produced during agonist-stimulated cell growth, was determined using a Spectrofluor microtitre plate reader (Tecan; excitation wavelength: 485 nm; emission wavelength: 535 nm). Fluorescence was plotted against compound concentration and iteratively curve fitted using a four parameter fit to generate a concentration effect value. Efficacy (Emax) was calculated from the equation\nEmax=Max[compound X]−Min[compound X]/Max[HU210]−Min[HU210]×100%\nwhere Max[compound X] and Min[compound X] are the fitted maximum and minimum respectively from the concentration effect curve for compound X, and Max[HU210] and Min[HU210] are the fitted maximum and minimum respectively from the concentration effect curve for (6aR,10aR)-3-1,1′-Dimethylheptyl)-6a,7,10,10a-tetrahydro-1-hydroxy-6,6-dimethyl-6H-dibenzo[b,d]pyran-9-methanol (HU210; available from Tocris). Equieffective molar ratio (EMR) values were calculated from the equation\nWhere EC50[compound X] is the EC50 of compound X and EC50[HU210] is the EC50 of HU210.", "key": {"[1]": {"conditions": "yeast agonist assay, read-out: EC50 at the cloned human cannabinoid CB2 receptor"}}, "note": "Where a name gives a salt, the structure may show the parent alone. Read-outs that look alike come from different tables or passages of the source."}
{"smiles": "Clc1cccc(Nc2ncc(CNC3CCC3)c(C3CC3)n2)c1", "note": "[Example 1, (3-Chloro-phenyl)-(5-cyclobutylaminomethyl-4-cyclopropyl-pyrimidin-2-yl)-amine]", "values": [{"measurement": "EC50", "setting": "[1]", "result": "< 300", "unit": "nM"}, {"measurement": "Emax", "setting": "yeast agonist assay", "result": "> 50", "unit": "%"}]}
{"smiles": "Clc1cccc(Nc2ncc(CNCC3CC3)c(C3CC3)n2)c1", "note": "[Example 3, (3-Chloro-phenyl)-{4-cyclopropyl-5-[(cyclopropylmethyl-amino)-methyl]-pyrimidin-2-yl}-amineacetate]", "values": [{"measurement": "EC50", "setting": "[1]", "result": "< 300", "unit": "nM"}, {"measurement": "Emax", "setting": "yeast agonist assay", "result": "> 50", "unit": "%"}]}
{"smiles": "CC(C)CNCc1cnc(Nc2cccc(Cl)c2)nc1C1CC1", "note": "[Example 5, (3-Chloro-phenyl)-[4-cyclopropyl-5-(isobutylamino-methyl)-pyrimidin-2-yl]-amine]", "values": [{"measurement": "EC50", "setting": "[1]", "result": "< 300", "unit": "nM"}, {"measurement": "Emax", "setting": "yeast agonist assay", "result": "> 50", "unit": "%"}]}
{"smiles": "CC(C)c1nc(Nc2cccc(Cl)c2)ncc1CN1CCOCC1", "note": "[Example 6, (3-Chloro-phenyl)-(4-isopropyl-5-morpholin-4-ylmethyl-pyrimidin-2-yl)-amine]", "values": [{"measurement": "EC50", "setting": "[1]", "result": "< 300", "unit": "nM"}, {"measurement": "Emax", "setting": "yeast agonist assay", "result": "> 50", "unit": "%"}]}
{"smiles": "CC(C)c1nc(Nc2cccc(Cl)c2)ncc1CNCC1CC1", "note": "[Example 7, (3-Chloro-phenyl)-{5-[(cyclopropylmethyl-amino)-methyl]-4-isopropyl-pyrimidin-2-yl}-amine hydrochloride]", "values": [{"measurement": "EC50", "setting": "[1]", "result": "< 300", "unit": "nM"}, {"measurement": "Emax", "setting": "yeast agonist assay", "result": "> 50", "unit": "%"}]}
{"smiles": "CC(C)c1nc(Nc2cccc(Cl)c2)ncc1CNCC1CCCC1", "note": "[Example 8, (3-Chloro-phenyl)-{5-[(cyclopentylmethyl-amino)-methyl]-4-isopropyl-pyrimidin-2-yl}-amine hydrochloride]", "values": [{"measurement": "EC50", "setting": "[1]", "result": "< 300", "unit": "nM"}, {"measurement": "Emax", "setting": "yeast agonist assay", "result": "> 50", "unit": "%"}]}
{"smiles": "COCCNCc1cnc(Nc2cccc(Cl)c2)nc1C(C)C", "note": "[Example 9, (3-Chloro-phenyl)-{4-isopropyl-5-[(2-methoxy-ethylamino)-methyl]-pyrimidin-2-yl}-amineformate]", "values": [{"measurement": "EC50", "setting": "[1]", "result": "< 300", "unit": "nM"}, {"measurement": "Emax", "setting": "yeast agonist assay", "result": "> 50", "unit": "%"}]}
{"smiles": "FC(F)(F)c1nc(Nc2cccc(Cl)c2)ncc1CNCC1CCCC1", "note": "[Example 10, (3-Chlorophenyl){5-[(cyclopentylmethylamino)-methyl]-4 trifluoromethyl-pyrimidin-2-yl}-amine, formate]", "values": [{"measurement": "EC50", "setting": "[1]", "result": "< 300", "unit": "nM"}, {"measurement": "Emax", "setting": "yeast agonist assay", "result": "> 50", "unit": "%"}]}
{"smiles": "CC(C)CNCc1cnc(Nc2cccc(Cl)c2)nc1C(F)(F)F", "note": "[Example 11, (3-Chlorophenyl){5-[(isobutylamino)-methyl]-4-trifluoromethyl-pyrimidin-2yl}-amine, formate]", "values": [{"measurement": "EC50", "setting": "[1]", "result": "< 300", "unit": "nM"}, {"measurement": "Emax", "setting": "yeast agonist assay", "result": "> 50", "unit": "%"}]}
{"smiles": "FC(F)(F)c1nc(Nc2cccc(Cl)c2)ncc1CNCC1CCCCC1", "note": "[Example 12, (3-Chlorophenyl)-{[5-(cyclohexylmethylamino)-methyl]-4-trifluoromethyl-pyrimidin-2yl}-amine]", "values": [{"measurement": "Emax", "result": "> 50", "unit": "%"}, {"measurement": "EC50", "setting": "[1]", "result": "300 to 1000", "unit": "nM"}]}
{"smiles": "Fc1ccc(Nc2ncc(CNCC3CC3)c(C(F)(F)F)n2)cc1Cl", "note": "[Example 13, (3-Chloro-4-fluoro-phenyl)-{5-[(cyclopropylmethyl-amino)-methyl]-4-trifluoromethyl-pyrimidin-2-yl}-amine hydrochloride]", "values": [{"measurement": "EC50", "result": "< 300", "unit": "nM"}, {"measurement": "Emax", "result": "> 50", "unit": "%"}]}
{"smiles": "FC(F)(F)c1nc(Nc2cccc(Cl)c2)ncc1CN1CCOCC1", "note": "[Example 14, (3-Chlorophenyl)-(5-morpholin-4-ylmethyl-4-trifluoromethyl-pyrimidin-2-yl)-amine]", "values": [{"measurement": "EC50", "result": "< 300", "unit": "nM"}, {"measurement": "Emax", "result": "> 50", "unit": "%"}]}
{"smiles": "FC(F)(F)c1nc(Nc2cccc(Cl)c2)ncc1CNCC1CCOCC1", "note": "[Example 15, (3-Chlorophenyl)-(5-{[(tetrahydro-pyran-4-ylmethyl)-amino]-methyl}-4-trifluoromethyl-pyrimidin-2-yl)-amine,formate]", "values": [{"measurement": "EC50", "setting": "[1]", "result": "< 300", "unit": "nM"}, {"measurement": "Emax", "setting": "yeast agonist assay", "result": "> 50", "unit": "%"}]}
{"smiles": "FC(F)(F)c1nc(Nc2cccc(Cl)c2)ncc1CNC1CCOCC1", "note": "[Example 16, (3-Chlorophenyl)-{5-[(tetrahydro-pyran-4-ylamino)-methyl]-4-trifluoromethyl-pyrimidin-2-yl}-amine, formate]", "values": [{"measurement": "EC50", "setting": "[1]", "result": "< 300", "unit": "nM"}, {"measurement": "Emax", "setting": "yeast agonist assay", "result": "> 50", "unit": "%"}]}
{"smiles": "COCCNCc1cnc(Nc2cccc(Cl)c2)nc1C(F)(F)F", "note": "[Example 17, (3-Chlorophenyl)-{5-[(2-methoxy-ethylamino)-methyl]-4-trifluoromethyl-pyrimidin-2-yl}-amine, formate]", "values": [{"measurement": "EC50", "setting": "[1]", "result": "< 300", "unit": "nM"}, {"measurement": "Emax", "setting": "yeast agonist assay", "result": "> 50", "unit": "%"}]}
